In patent US12583841B2, “Tetrahydropyrrolocyclic compound and application thereof” (Breakthrough Pharmaceuticals Inc., priority 2021, dated 2026):

Assays:
OX1R = target: T1, OX1R (Homo sapiens, UniProt O43613); test: FLIPR intracellular calcium antagonism test, HEK293-OX1R cells; assay type: cell-based; conditions: Orexin A at EC70, read-out: hOXIR IC50
T1 construct: expressed in transfected cells
T1 sequence (O43613 1-425): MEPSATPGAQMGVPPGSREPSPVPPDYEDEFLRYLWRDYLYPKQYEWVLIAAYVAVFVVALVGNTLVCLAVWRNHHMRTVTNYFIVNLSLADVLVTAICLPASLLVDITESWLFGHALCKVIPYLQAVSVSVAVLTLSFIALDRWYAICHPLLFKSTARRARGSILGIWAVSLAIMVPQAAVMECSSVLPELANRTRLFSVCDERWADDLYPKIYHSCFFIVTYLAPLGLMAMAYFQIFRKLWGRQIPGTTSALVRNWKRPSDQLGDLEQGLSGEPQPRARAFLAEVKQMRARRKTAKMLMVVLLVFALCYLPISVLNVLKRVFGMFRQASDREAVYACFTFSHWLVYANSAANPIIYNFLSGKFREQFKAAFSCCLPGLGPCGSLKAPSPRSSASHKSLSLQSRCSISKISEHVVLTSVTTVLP
Method: (§1) The change of intracellular calcium signal was detected by FLIPR, and the antagonism of the compounds on OX1R and OX2R receptors was evaluated by using IC50 value of the compounds as an index.
(§2) • Cell lines: Transfected HEK293-OX1R and HEK293-OX2R stable cell lines • HEK293-OX1R cell culture medium (DMEM, Invitrogen #11960-044, 10% serum Gibco #10099141, L-Glutamine 1×, Gibco #25030, sodium pyruvate 1×, Gibco #11360, Geneticin 300 μg/mL, Gibco #10131) • HEK293-OX2R cell culture medium (DMEM, Invitrogen #11960-044, 10% serum Gibco #10099141, L-Glutamine 1×, Gibco #25030, sodium pyruvate 1×, Gibco #11360, Geneticin 300 μg/mL, Gibco #10131, Blasticin 2 μg/mL, Invitrogen #R21001)
(§3) Experimental Steps and Methods: • a) Cell seeding (HEK293-OX1R and HEK293-OX2R cells) • 1) preheating the culture medium, trypsin and DPBS under water bath at 37° C.; pipetting and removing the medium of cell culture and washing same with 10 mL of DPBS; • 2) adding the preheated trypsin to a culture flask, rotating the culture flask so that the trypsin evenly covered the culture flask, and putting the culture flask in a 37° C., 5% CO2 incubator for digestion for 1-2 min; • 3) suspending the cells with 10-15 mL of medium for each T150 and centrifuging at 800 rpm for 5 min; resuspending the cells with 10 mL of medium, pipetting 1 mL of the cell suspension and counting with Vi-cell; • 4) diluting OX1R cells with medium to 5×10^5 cells/mL, and diluting OX2R cells with medium to 4×10^5 cells/mL, and adding the diluted cells to 384 plate (Greiner.781946) with a multi-channel pipette (50 μL/well, 25000 cells/well for OX1R cells, 20000 cells/well for OX2R cells); placing the cell plate in a 37° C., 5% CO2 incubator overnight. • b) Compound loading: • 1) diluting the compound to 20 mM with DMSO, 3-fold dilution, 8 gradients, duplicate wells, and adding same to a compound plate with an Echo liquid handler; then adding 20 μL of buffer to maintain the final concentration of DMSO of 0.1%. • c) FLIPR experiment: • 1) washing off the cell culture medium in the 384 plate with a vacuum pump, adding […] Direct fluorescent dye, incubating in 37° C., 5% CO2 incubator for 1 h, and balancing at room temperature for another 10 min. • 2) EC50 test: manually diluting Orexin A on ice, 3-fold dilution, 8 gradients, duplicate wells; preparing a DMSO plate and keep the DMSO concentration to be 0.5%; putting the cell plate, OrexinA plate, and DMSO plate in FLIPR respectively, and reading the fluorescence value. • 3) calculating the EC70 value based on the EC50 value of Orexin A; preparing a 5×EC70 solution, adding same to 384 compound plate with a multi-channel pipette, and storing on ice; • 4) putting the compound plate, 5×EC70 plate, cell plate, and FLIPR tip in sequence in FLIPR, running the program, and reading the fluorescence value. • d) Data analyzing: using Prism5.0 to analyze the data, and calculating the IC50 value of the compound.

OX2R = target: T2, OX2R (Homo sapiens, UniProt O43614); test: FLIPR intracellular calcium antagonism test, HEK293-OX2R cells; assay type: cell-based; conditions: Orexin A at EC70, read-out: hOX2R IC50
T2 construct: expressed in transfected cells
T2 sequence (O43614 1-444): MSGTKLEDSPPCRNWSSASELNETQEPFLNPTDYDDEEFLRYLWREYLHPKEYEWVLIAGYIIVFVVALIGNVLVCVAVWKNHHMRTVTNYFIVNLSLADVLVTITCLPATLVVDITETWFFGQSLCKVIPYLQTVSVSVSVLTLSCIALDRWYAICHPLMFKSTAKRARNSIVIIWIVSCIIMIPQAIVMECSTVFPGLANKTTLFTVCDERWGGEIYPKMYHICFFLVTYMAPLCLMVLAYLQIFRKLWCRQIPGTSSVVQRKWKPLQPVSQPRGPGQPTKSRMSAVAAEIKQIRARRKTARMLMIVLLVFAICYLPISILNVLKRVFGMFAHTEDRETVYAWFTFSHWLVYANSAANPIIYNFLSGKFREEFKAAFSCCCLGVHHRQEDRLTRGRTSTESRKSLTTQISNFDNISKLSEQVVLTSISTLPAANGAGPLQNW
Method: as §1, §2, §3

IC50 (OX1R) [nM] | IC50 (OX2R) [nM] | SMILES
710 | 17 | COc1ccc2[nH]c([C@@H]3C[C@H]4C[C@H]4N3C(=O)c3ccc(C)cc3-n3nccn3)nc2c1 [Compound 10]
1280 | 81 | COc1ccc2[nH]c([C@@H]3C[C@H]4C[C@H]4N3C(=O)c3c(F)cccc3-n3nccn3)nc2c1 [Compound 12]
1420 | 299 | COc1ccc2nc([C@@H]3[C@H]4C[C@H]4CN3C(=O)c3c(F)cccc3-n3nccn3)[nH]c2c1 [Compound 6]
> 10000 | 72 | COc1ccc2nc([C@@H]3C[C@H]4C[C@H]4N3C(=O)c3ccccc3-n3nccn3)[nH]c2c1 [Compound 2]
877 | 24 | COc1ccc2nc([C@@H]3C[C@H]4C[C@H]4N3C(=O)c3cc(C)ccc3-n3nccn3)[nH]c2c1 [Compound 7]
1040 | 30 | COc1ccc2[nH]c([C@@H]3C[C@H]4C[C@H]4N3C(=O)c3cc(Cl)ccc3-n3nccn3)nc2c1 [Compound 14]
337 | 96 | COc1ccc2nc([C@@H]3[C@H]4C[C@H]4CN3C(=O)c3cc(C)ccc3-n3nccn3)[nH]c2c1 [Compound 5]
> 10000 | 25 | COc1ccc2nc([C@@H]3[C@H]4C[C@H]4CN3C(=O)c3ccccc3-n3nccn3)[nH]c2c1 [Compound 1]
3600 | 33 | COc1ccc2[nH]c([C@@H]3C[C@H]4C[C@H]4N3C(=O)c3cc(F)ccc3-n3nccn3)nc2c1 [Compound 11]
2440 | 60 | COc1ccc2[nH]c([C@@H]3C[C@H]4C[C@H]4N3C(=O)c3cc(C)ccc3-c3ncccn3)nc2c1 [Compound 13]
462 | 64 | COc1ccc(-n2nccn2)c(C(=O)N2C[C@@H]3C[C@@H]3[C@H]2c2nc3ccc(OC)cc3[nH]2)c1 [Compound 4]
3170 | 42 | COc1ccc2nc([C@@H]3C[C@H]4C[C@H]4N3C(=O)c3ccc(F)cc3-n3nccn3)[nH]c2c1 [Compound 9]
